The values that follow come from patent EP0117429A1, “Phosphorous containing compounds as inhibitors of enkephalinases” (SCHERING CORPORATION, priority 1983, dated 1984).

The target of one test is T1, enkephalinase A (Rattus norvegicus, UniProt P07861).
T1 construct: from tissue; host or cells: rat brain (minus cerebellum), Triton X-100 solubilised membranes, DEAE Sephacel fraction
T1 sequence (P07861 1-750): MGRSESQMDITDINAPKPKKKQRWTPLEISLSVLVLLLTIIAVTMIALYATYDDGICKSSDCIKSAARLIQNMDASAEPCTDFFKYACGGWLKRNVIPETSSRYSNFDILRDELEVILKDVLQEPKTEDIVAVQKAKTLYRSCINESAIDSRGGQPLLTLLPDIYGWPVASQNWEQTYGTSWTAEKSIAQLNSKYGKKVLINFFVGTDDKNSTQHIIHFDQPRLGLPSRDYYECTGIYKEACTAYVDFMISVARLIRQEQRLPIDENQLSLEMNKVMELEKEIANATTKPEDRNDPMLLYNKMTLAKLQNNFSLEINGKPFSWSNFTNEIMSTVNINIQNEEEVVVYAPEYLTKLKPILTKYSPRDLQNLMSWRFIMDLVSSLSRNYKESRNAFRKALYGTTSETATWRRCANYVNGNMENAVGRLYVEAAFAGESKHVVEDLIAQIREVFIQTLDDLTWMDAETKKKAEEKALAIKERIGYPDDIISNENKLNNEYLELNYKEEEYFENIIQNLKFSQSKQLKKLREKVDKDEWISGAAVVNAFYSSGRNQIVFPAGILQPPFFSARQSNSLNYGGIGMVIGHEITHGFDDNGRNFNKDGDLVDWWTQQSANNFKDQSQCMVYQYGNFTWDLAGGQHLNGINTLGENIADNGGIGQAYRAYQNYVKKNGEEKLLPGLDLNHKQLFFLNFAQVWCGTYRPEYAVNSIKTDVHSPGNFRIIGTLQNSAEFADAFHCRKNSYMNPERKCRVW
As to the kind of experiment: Enkephalinase A inhibition, radiometric assay with 3H-Met5-ENK substrate and TLC separation. In kind it is biochemical, Sprague-Dawley rats. The note with it: enkephalinase A fraction from rat brain membranes; substrate 3H-Met5-ENK 40 nM; 90 minutes at 37°C; pH 7.4. As to the method: Enzyme activity was separated by taking the brain tissue (minus cerebellum) from Sprague-Dawley rats and homogenizing it in 30 volumes of 50 mM Tris buffer, pH 7.4, using a Brinkmann Polytron. The resulting homogenate is centrifuged at 50,000 x g for 15 minutes. The pellet, constituting the membrane bound enzyme material, was washed by resuspending it in Tris and re- centrifuging it 4 times.
Following washing, solubilization of the membrane pellet was achieved by incubating it for 45 minutes at 37 °C in the presence of 15 volumes (based on initial brain weight) of 50 mM Tris-l% Triton X-100 buffer, pH 7.4. After centrifugation at 100,000 x g for 60 minutes to remove non-solubilized material, the Triton soluble supernatant was layered on a 1.5 x 30 cm DEAE Sephacel column previously equilibrated with.50 mM Tris-0.1% Triton, pH 7.4. Material was eluted from the column using a 1 liter linear NaCl gradient running from 0.0 to 0.4 M. Effluent was collected in 7 ml fractions, each of which was assayed for enkephalin degrading activity.
Enkephalin degrading activity was monitored using a radiometric assay. The substrate was ^3H-Met5-ENK (50.1 Ci/mmol, New England Nuclear) diluted in 0.05 M Tris buffer, pH 7.4, such that the final reaction mixture concentration was 40 nM. Total reaction mixture volume including enzyme and substrate was 250 µl. Incubation was carried out for 90 minutes at 37°C. To stop the reaction, tubes were transferred to a boiling water bath for 15 minutes.
Assay products were separated form one another using thin layer chromatography. […] Total running time was approximately 17 hours. TLC tanks are gassed with nitrogen prior to starting the run. Following the run, markers are visualized with ninhydrin spray. These spots, along with remaining plate regions, are cut from the plate and the radioactivity corresponding to each monitored using liquid scintillation counting. IC50's are determined using linear regression techniques.

The next test relates to Male CF1 mice. Kind of test: Potentiation of the analgesic effects of DAEAM, mouse tailflick test. In kind it is in vivo. Conditions: dose at which half the test animals displayed analgesia, DAEAM icv, tailflick latency 30 minutes after DAEAM, cut-off 10 seconds. As to the method:
The following test procedure was utilized to assess the noted compounds' potentiation of the analgesic effects of (D-Ala^2-Met^5)-enkephalinamide (DAEAM).
Male CF1 mice (19-23 g) from Charles River Breeding Labs, Mass., were used (N=10/dose or dose combination). […] Tailflick latencies were re-determined 30 minutes later, as this has previously been determined to be the time of peak analgesia for DAEAM, and a cut-off of 10 seconds is employed.

Counter-ions that a name gives are not always drawn.

By IC50 is commonly meant the midpoint of a concentration-inhibition curve. A lower IC50 goes with inhibition by little substance. The compound “3-[(S) -2- (Diethoxyphosphinyl) methyl -1-oxo-3 -nhenyl- propyl]amino-2-(R,S)-methylpropanoic acid calcium salt [S, -H, -CONH-, -CH2C^**H(CH3)-, -OH]” came in with an IC50 against enkephalinase A of 0.0255 µM. Moreover, the “Oral ED50, in mice” value with Male CF1 mice amounted to 20 mg/kg.
`O=C(O)CCNC(=O)C(Cc1ccc(-c2ccccc2)cc1)CP(=O)(O)O` (racemic) [R,S, -C6H5, -CONH-, -(CH2)2-, -OH, N-[(R,S)-3-(1,1'-Biphenyl-4-yl)-1-oxo-2-(phosphonomethyl)-propyl]-β-alanine] returned an IC50 on enkephalinase A of 0.0013 µM.
The same measure, in the same setting: next, `CCOC(=O)CCNC(=O)C(Cc1ccc(C(F)(F)F)cc1)CP(=O)(O)O` (racemic) [R,S, -CF3, -CONH-, -(CH2)2-, -OC2H5]: 2.2 µM; `O=C(O)CCNC(=O)C(Cc1ccc(C(F)(F)F)cc1)CP(=O)(O)O` (racemic) [R,S, -CF3, -CONH-, -(CH2)2-, -OH, N-[1-Oxo-2-phosphonomethyl-3-(4-trifluoromethyl)phenylpropyl]-β-alanine]: 0.06 µM; `O=C(O)CCNC(=O)[C@@H](Cc1ccccc1)CP(=O)(O)O` [R, -H, -CONH-, -(CH2)2-, -OH, N-[(R)-1-oxo-3-phenyl-2-)phosphonomethyl)propyl] -(β-alanine calcium salt]: 0.6 µM.
The same measure, in the same setting: next, `CC(OC(=O)NC(Cc1ccccc1)CP(=O)(O)O)C(=O)O` [R,S, -H, -NHCOO-, -C^**H(CH3)-, -OH, 2-[2-phenyl-l-(phosphonomethyl)ethyl]aminocarbonyloxy-propanoic acid]: 0.1 µM.
Regarding `O=C(O)CCNC(=O)[C@H](Cc1ccc(Cl)cc1)CP(=O)(O)O` [S, -Cl, -CONH-, -(CH2)2-, -OH, N-[3-(a-chloro)phenyl-1-oxo-2-(phosphonomethyl)propyl]-B-alanine], the IC50 on enkephalinase A was determined as 0.011 µM. In the test on Male CF1 mice, the “Oral ED50, in mice” value turned out to be 25 mg/kg.
For the compound `O=C(CCNC(=O)[C@H](Cc1ccccc1)CP(=O)(O)O)OCCOc1ccccc1` [S, -H, -CONH-, -(CH2)2-, -O(CH2)2OC6H5, N-[(S)-1-Oxo-3-phenyl-2-(phosphonomethyl)propyl)-β-alanine 2-phenoxyethyl ester], the IC50 at enkephalinase A is 0.21 µM. This counts as sub-micromolar.
`CCOC(=O)CCNC(=O)[C@H](Cc1ccccc1)CP(=O)(O)O` [S, -H, -CONH-, -(CH2)2-, -OC2H5, N-[(S)=1-Oxo-3-phenyl-2-(phostphonomethyl)propyl] -β-alanine ethyl ester calcium salt] registered a concentration for half-maximal inhibition (IC50) at enkephalinase A of 0.06 µM. In addition, in the test with Male CF1 mice, the “Oral ED50, in mice” value is reported as 2.5 mg/kg.
For the compound `O=C(O)CCCNC(=O)C(Cc1ccccc1)CP(=O)(O)O` (centres unmarked) [S, -H, -CONH-, -(CH2)3-, -OH, 4-[1-oxo-3-phenyl-2-(phosphonomethyl)propyl]amino-butanoic acid], the IC50 against enkephalinase A stood at 0.08 µM.
In turn, `O=C(O)C(O)CNC(=O)C(Cc1ccccc1)CP(=O)(O)O` (centres unmarked) [S, -H, -CONH-, -CH2C^***H(OH)-, -OH, 3-[1-Oxo-3-phenyl-2-(phosphonomethyl)propyl]amino-2-hydroxypropanoic Acid] registered an IC50 against enkephalinase A of 0.025 µM.
Still for that read-out and setting: next, `CCOC(=O)c1ccc(NC(=O)C(Cc2ccccc2)CP(=O)(O)O)cc1` (centres unmarked) [S, -H, -CONH-, p-C6H4-, -OC2H5, 4-[1-oxo-3-phenyl-2-(phosphonomethyl)propyl]aminobenzoic acid ethyl ester]: 0.063 µM.
The compound “N-L(S)-1-Oxo-3-phenyl-2-(phosphonomethyl)propyl]-β-alanine calcium salt [S, -H, -CONH-, -(CH2)2-, -OH]” gave an IC50 on enkephalinase A of 0.019 µM. The “Oral ED50, in mice” value in the test with Male CF1 mice amounted to 3 mg/kg.
